Measured values published in patent US20050159476A1, “Pharmaceutical composition for preventing or treating respiratory disease” (Chugai Seiyaku Kabushiki Kaisha, priority 2002, published 2005).
Where two headings read alike, the source gives them in different places.

Assays:
[1] = test system: human A549 cells; assay: Protective effect against cell injury induced by oxidized LDL in human A549 cells (LDH leakage); assay type: cell-based; settings: for inhibition at 3 µM / inhibition at 30 µM: Homo sapiens, oxidized LDL 100 μg/mL, 24 hours, average ± standard error; for inhibition at 3 µM: 3 μmol/L test compound; for inhibition at 30 µM: 30 μmol/L test compound; for % cell protection as a function of test compound concentration (FIG. 1): test compound added immediately before oxidized LDL, Test Example 2
Experimental: (§1) Oxidized LDL was prepared by maintaining 1 mg/mL of rabbit LDL at 37° C for 24 hours in PBS (-) containing 10 μmol/L CUSO4.
Human A549 cells used in this test are available under accession number ATCC-CCL-185 and have the properties of type II alveolar epithelial cells (Lieber M, Smith B, Szakal A, Nelson-Rees W, Todaro G., A continuous tumor-cell line from a human lung carcinoma with properties of type II alveolar epithelial cells. Int J Cancer Jan. 15, 1976; 17(1):62-70).
(§2) These cells were dispersed in F12K medium containing 10% FBS and plated on a 24-well plate at 2.5×10^4 cells/500 μL/well. These cells were incubated at 37° C. for 18 hours and then the medium was replaced by F12K medium containing 2% FBS. At this time, 2.5 μL of a solution or a suspension of each test compound in ethanol was added at the concentrations of the test compound of 3 μmol/L and 30 μmol/L in each well.
(§3) After incubation at 37° C. for 6 hours, 50 μL of a suspension of oxidized LDL was added per well at the concentration of oxidized LDL of 100 μg/mL in each well.
(§4) After incubation at 37° C. for 24 hours, 200 μL of the supernatant was collected from each well and the amount of lactate dehydrogenase (LDH) leaked from cells was determined by the SFBC method.
(§5) Further test was carried out in the same manner as the above test with the exception that each test compound was added to the cell culture after incubation for 6 hours following medium replacement and immediately before oxidized LDL was added thereto rather than when the medium was replaced with F12K medium containing 2% FBS.
(§6) Higher LDH levels in the supernatant indicate that greater cell injury is induced by oxidized LDL. Separately, one experiment was carried out using a well in the same manner as the above test with the exception that no test compound was added to the well. The level of LDH in this well was defined as 0% cell protection. In addition, other experiment was carried out using another well without adding either test compound or oxidized LDL but with adding saline instead. The level of LDH in this well was defined as 100% cell protection. These levels of LDH were used for calculating cell protection of each test compound used in the above test.
Probucol and α-tocopherol were tested for comparison with the compounds of the present invention. In this test, the test compounds were added to the cell culture after incubation for 6 hours following medium replacement and immediately before oxidized LDL was added.

[2] = test system: normal human bronchial/tracheal epithelial cells (NHBE w/RA); assay: Protective effect against cell injury induced by oxidized LDL in normal human bronchial/tracheal epithelial cells (LDH leakage); assay type: cell-based; settings: 24 h, average ± standard error; for inhibition at 3 µM: 3 μmol/L test compound; for inhibition at 30 µM: 30 μmol/L test compound
Experimental: as §1, §2, §3, §4, §5, §6
This test example was carried out in a similar manner to test example 1 except that human A549 cells were replaced with normal human bronchial/tracheal epithelial cells (NHBE w/RA: BioWhittaker Co.), cell culture medium was changed from F12K medium containing 10% FBS to BEGM® medium, and the replacement of medium was not made.

[3] = read-out: % Cell protection in the case where oxidized LDL was added 6 hrs after adding test compound
[4] = read-out: % Cell protection in the case where oxidized LDL was added immediately after adding test compound

Row | Compound | inhibition at 3 µM [1, 3] | inhibition at 3 µM [1, 4] | inhibition at 30 µM [1, 3] | inhibition at 30 µM [1, 4] | inhibition at 3 µM [2, 3] | inhibition at 3 µM [2, 4] | inhibition at 30 µM [2, 3] | inhibition at 30 µM [2, 4] | % cell protection as a function of test compound concentration (FIG. 1) [1]
1 | CC1(C)Cc2c(cc(C(C)(C)C)c(O)c2C(C)(C)C)O1 [Compound 2, 4,6-di-t-butyl-5-hydroxy-2,2-dimethyl-2,3-dihydrobenzofuran] | 0.5 ± 1.3% | 16.9 ± 10.5% | 99.5 ± 1.1% | 100 ± 1.5% | 32.8 ± 2.9% | 71.1 ± 1.3% | 27.7 ± 2.7% | 76.1 ± 3.4% | 
2 | CC1(C(=O)O)Cc2c(cc(C(C)(C)C)c(O)c2C(C)(C)C)O1 (stereo not drawn) [Compound 6, 4,6-di-t-butyl-5-hydroxy-2-methyl-2,3-dihydrobenzofuran-2-carboxylic acid] | 8.5 ± 0.8% | 9.1 ± 1.2% | 65.3 ± 2.9% | 46.7 ± 2.9% | -0.9 ± 1.8% | 0.3 ± 2% | 44.8 ± 3.2% | 30.3 ± 3.1% | 
3 | CCCCCC1(CCCCC)Cc2c(cc(C)c(O)c2C)O1 [Compound 17, 4,6-dimethyl-2,2-di-n-pentyl-5-hydroxy-2,3-dihydrobenzofuran] | 97.8 ± 1.4% | 97.7 ± 1.1% |  | 98.1 ± 3.6% | 44.8 ± 5.9% | 51 ± 5% |  | 57.6 ± 0.6% | 
4 | Cc1cc2c(c(C)c1O)CC(C)(C)O2 [Compound 15, 5-hydroxy-2,2,4,6-tetramethyl-2,3-dihydrobenzofuran] | 30 ± 10.2% | 36.1 ± 14.1% | 100.6 ± 0.9% | 99.6 ± 0.7% | 45.9 ± 4.5% | 40.8 ± 3.3% | 79.5 ± 6.4% | 70.6 ± 4.9% | 
5 | CC(C)(C)c1cc2c(c(C(C)(C)C)c1O)CC1(CCCCC1)S2 [Compound 13, 4,6-di-t-butyl-5-hydroxy-2,3-dihydrobenzothiophene-2-spiro-1′-cyclohexane] | 10.8 ± 3.9% | 11.3 ± 3.5% | 98 ± 1% | 97.1 ± 4.3% | -3.4 ± 7.1% | -4.8 ± 2.9% | 37.8 ± 0.7% | 49.2 ± 1.7% | 
6 | CC(C)(C)c1cc2c(cc1O)CC1(CCCCCC1)O2 [Compound 18, 6-t-butyl-5-hydroxy-2,3-dihydrobenzofuran-2-spiro-1′-cycloheptane] | 98.7 ± 1.3% | 96.2 ± 0.4% |  | 97.4 ± 1% | 55.7 ± 3.1% | 46.4 ± 1.4% |  | 35.5 ± 1.9% | 
7 | Cc1c(C)c2c(c(C)c1O)CC[C@@](C)(CCC[C@H](C)CCC[C@H](C)CCCC(C)C)O2 [α-tocopherol, reference compound] |  |  |  |  |  |  |  |  | does not increase or only slowly increases
8 | CC(C)(C)c1cc2c(c(C(C)(C)C)c1O)CC1(CCSCC1)O2 [Compound 11, 4,6-di-t-butyl-5-hydroxy-2,3-dihydrobenzofuran-2-spiro-4′-tetrahydrothiopyran] | 3.5 ± 2.6% | 4.6 ± 2.6% | 99.3 ± 1.1% | 98.5 ± 0.8% | 3 ± 3.2% | 7.5 ± 7.6% | 52 ± 2.2% | 40.9 ± 5.3% | 
9 | CC(C)(C)c1cc2c(c(C(C)(C)C)c1O)CC1(CCOCC1)S2 [Compound 14, 4,6-di-t-butyl-5-hydroxy-2,3-dihydrobenzothiophene-2-spiro-4′-tetrahydropyran] | 7 ± 3.5% | 3.2 ± 1.3% | 96.1 ± 1.2% | 98.9 ± 2.4% | -0.5 ± 1.9% | -1 ± 5.3% | 63.3 ± 0.8% | 60.6 ± 4% | 
10 | CC(C)(Sc1cc(C(C)(C)C)c(O)c(C(C)(C)C)c1)Sc1cc(C(C)(C)C)c(O)c(C(C)(C)C)c1 [probucol, reference compound] |  |  |  |  |  |  |  |  | does not increase or only slowly increases
11 | CC(C)(C)c1cc2c(c(C(C)(C)C)c1O)CC(Cc1ccccc1)(Cc1ccccc1)O2 [Compound 4, 4,6-di-t-butyl-2,2-dibenzyl-5-hydroxy-2,3-dihydrobenzofuran] | 6.1 ± 2.5% | 5.3 ± 2.5% | 94.1 ± 0.4% | 95.3 ± 3.4% | 12.3 ± 4.3% | 9.1 ± 2.3% | 47.8 ± 1.6% | 53.5 ± 3.1% | 
12 | CC(C)(C)c1cc2c(c(C(C)(C)C)c1O)CC1(CCCCCC1)O2 [Compound 7, 4,6-di-t-butyl-5-hydroxy-2,3-dihydrobenzofuran-2-spiro-1′-cycloheptane] | 1.6 ± 6% | -0.8 ± 2.8% | 98.2 ± 2.1% | 98.4 ± 1.1% | 7.7 ± 3.6% | 11.3 ± 1.1% | 58.7 ± 5.1% | 73.4 ± 0.4% | 
13 | CC(C)(C)c1cc2c(c(C(C)(C)C)c1O)CC1(CCCCC1)O2 [Compound 10, 4,6-di-t-butyl-5-hydroxy-2,3-dihydrobenzofuran-2-spiro-1′-cyclohexane] | -0.7 ± 1.5% | 0.9 ± 1.9% | 97.8 ± 2.1% | 96.9 ± 4.8% | 5.3 ± 2.6% | 13.1 ± 6.4% | 37.3 ± 4.3% | 57 ± 2.5% | 
14 | CC1(CN)Cc2c(cc(C(C)(C)C)c(O)c2C(C)(C)C)O1 (stereo not drawn) [Compound 5, 2-aminomethyl-4,6-di-t-butyl-5-hydroxy-2-methyl-2,3-dihydrobenzofuran] | 6.4 ± 0.8% | 6.9 ± 3.1% | 96.5 ± 0.5% | 97.1 ± 0.8% | 6.3 ± 4.5% | 0.8 ± 4.6% | 33.6 ± 1.8% | 48.3 ± 8.1% | 
15 | CC(C)(C)c1cc2c(c(C(C)(C)C)c1O)CC1(CCOCC1)O2 [Compound 8, 4,6-di-t-butyl-5-hydroxy-2,3-dihydrobenzofuran-2-spiro-4′-tetrahydropyran] | 10.6 ± 6.2% | 10.8 ± 5.2% | 95 ± 5.3% | 93.6 ± 2.9% | 10.1 ± 6% | 13.2 ± 1.4% | 74.3 ± 1.5% | 68.9 ± 0.8% | 
16 | CC1(C)Cc2c(cc(C(C)(C)C)c(O)c2C(C)(C)C)S1 [Compound 12, 4,6-di-t-butyl-5-hydroxy-2,2-dimethyl-2,3-dihydrobenzothiophene] | 9.9 ± 6.8% | 11.1 ± 7.4% | 98.7 ± 2.9% | 96.6 ± 2% | 10.9 ± 2.1% | 10.9 ± 3.8% | 21.2 ± 2% | 48.7 ± 1.2% | 
17 | CC(C)(C)c1cc2c(c(C(C)(C)C)c1O)CCO2 [Compound 1, 4,6-di-t-butyl-5-hydroxy-2,3-dihydrobenzofuran] | 11.3 ± 1.6% | 40.4 ± 8.3% | 99.6 ± 0.9% | 98.8 ± 0.2% | 5.9 ± 4.7% | 35.6 ± 16.8% | 74.7 ± 1.4% | 59.2 ± 7.6% | 
18 | CC1(C)Cc2c(c(C(C)(C)C)cc(O)c2C(C)(C)C)O1 [Compound 16, 4,7-di-t-butyl-5-hydroxy-2,2-dimethyl-2,3-dihydrobenzofuran] | 100.3 ± 1% | 99.1 ± 0.9% |  | 98.4 ± 0.6% | 54.9 ± 3.4% | 62.6 ± 1.6% |  | 42 ± 2.2% | 
19 | CC(C)(C)c1cc2c(c(C(C)(C)C)c1O)CC1(CCCC1)O2 [Compound 9, 4,6-di-t-butyl-5-hydroxy-2,3-dihydrobenzofuran-2-spiro-1′-cyclopentane] | -1.6 ± 4.4% | -1.5 ± 4.1% | 98.5 ± 1.8% | 99.2 ± 2.2% | 3.7 ± 6.7% | 6.1 ± 1.1% | 18.1 ± 2.3% | 71.1 ± 2.3% | 
